The experiment in a line: Inhibition of acetylcholinesterase.

The record followed here is BindingDB's records for doi:10.1021/jm058041z (University of Würzburg, 2005).

As usually defined, the IC50 is the midpoint of a concentration-inhibition curve. Read a high IC50 as a need for much substance.

`Nc1c2c(nc3c(CO)cccc13)CCCC2` [9-amino-5,6,7,8-tetrahydroacridin-4yl)methano] displayed an IC50 of 0.125 µM.
